# Experimental data published in US6569404B1, “Phase shift colloids as ultrasound contrast agents” (priority 1993, dated 2003).
# Assays:
# [1] = dispersed phase of emulsions of Example 18; cited from earlier work
# [2] = Emulsion stability versus relative HLB of Pluronic L61/F68 mixtures; assay type: physicochemical; settings: from stability of emulsions
# Source text: The relative hydrophilic-lipophilic balance (HLB) is a method of optimizing a nonionic surfactant solution to achieve greatest stability. It is described in detail in Emulsions: Theory and Practice, Paul Becher, 1965, Robert E. Krieger Publishing Company Malabar, Fla., and references contained therein, and is incorporated here by reference. Solutions of Pluronic L61 (HLB 3.0) and F68 (HLB 29) were mixed to achieve intermediate HLB values by the following formula:
# HLB=fL61 {HLB of L61}+ff68 {HLB of F68} The actual solutions, the calculated HLB values, and the stability of the final formulation (a 2% v/v emulsion of dodecafluorohexane) are contained in the following table: […]
smiles,measurement,setting,value
"FC(F)(F)C(F)(F)C(F)(F)C(F)(F)C(F)(F)C(F)(F)F [Perfluorohexane, reference compound]",Boiling Point,[1],59 °C
same,relative HLB established,[2],6-8
